PubChem BioAssay AID1963871 (Molecular Pharmacology Branch, DTP, NCI, 2024)

Tested on: KRAS-mutant PDC multicell tumor spheroid viability
Test: Anticancer human tumor 521955-158-R2-J5-PDC patient-derived pancreatic carcinoma cell line growth inhibition [KRAS2]
Settings: for viability, T/C: stronger effect = lower value
Outline: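 KRAS-mutant tumor cells were grown as spheroids with HUVEC endothelial cells and human MSCs as stroma. Targeted agents were tested alone and with KRAS pathway inhibitors. Doses started at or near clinical Cmax, or 10 microM, descending half-log.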

[1] = curve of first compound, second compound 0.1 µM
[2] = curve of first compound, second compound 0.316 µM
[3] = curve of first compound, second compound 1 µM
[4] = curve of first compound, second compound 3.16 µM
[5] = curve of first compound, second compound 10 µM
[6] = second compound 0.1 µM, first compound 0.0316 µM
[7] = second compound 0.1 µM, first compound 0.1 µM
[8] = second compound 0.1 µM, first compound 0.316 µM
[9] = second compound 0.1 µM, first compound 1 µM
[10] = second compound 0.1 µM, first compound 3.16 µM
[11] = second compound 0.316 µM, first compound 0.0316 µM
[12] = second compound 0.316 µM, first compound 0.1 µM
[13] = second compound 0.316 µM, first compound 0.316 µM
[14] = second compound 0.316 µM, first compound 1 µM
[15] = second compound 0.316 µM, first compound 3.16 µM
[16] = second compound 1 µM, first compound 0.0316 µM
[17] = second compound 1 µM, first compound 0.1 µM
[18] = second compound 1 µM, first compound 0.316 µM
[19] = second compound 1 µM, first compound 1 µM
[20] = second compound 1 µM, first compound 3.16 µM
[21] = second compound 3.16 µM, first compound 0.0316 µM
[22] = second compound 3.16 µM, first compound 0.1 µM
[23] = second compound 3.16 µM, first compound 0.316 µM
[24] = second compound 3.16 µM, first compound 1 µM
[25] = second compound 3.16 µM, first compound 3.16 µM
[26] = second compound 10 µM, first compound 0.0316 µM
[27] = second compound 10 µM, first compound 0.1 µM
[28] = second compound 10 µM, first compound 0.316 µM
[29] = second compound 10 µM, first compound 1 µM
[30] = second compound 10 µM, first compound 3.16 µM
[31] = curve of first compound, second compound 0.0316 µM
[32] = second compound 0.0316 µM, first compound 0.0316 µM
[33] = second compound 0.0316 µM, first compound 0.1 µM
[34] = second compound 0.0316 µM, first compound 0.316 µM
[35] = second compound 0.0316 µM, first compound 1 µM
[36] = second compound 0.0316 µM, first compound 3.16 µM
[37] = second compound 0.0316 µM, first compound 10 µM
[38] = second compound 0.1 µM, first compound 10 µM
[39] = second compound 0.316 µM, first compound 10 µM
[40] = second compound 1 µM, first compound 10 µM
[41] = second compound 3.16 µM, first compound 10 µM
[42] = second compound 10 µM, first compound 10 µM
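Further: viability read after seven days of drug exposure.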

CC1COCCN1c1cc(-c2ccnn2C)c2ccnc(-c3ccn[nH]3)c2n1 (configuration not stated) + CNCc1ccccc1-c1csc(C(C)Nc2nc(C)nc3cc(OC)c(OC)cc23)c1
IC50 [1]: 30.5 nM
IC50 [2]: 23.8 nM
IC50 [3]: 22.1 nM
IC50 [4]: < 10 nM
IC50 [5]: < 10 nM
viability, T/C (second compound 0.1 µM, first compound 0.01 µM): 101%
viability, T/C [6]: 48.3%
viability, T/C [7]: 11.4%
viability, T/C [8]: 13.6%
viability, T/C [9]: 20.8%
viability, T/C [10]: 29.5%
viability, T/C (second compound 0.316 µM, first compound 0.01 µM): 95.9%
viability, T/C [11]: 35%
viability, T/C [12]: 12.4%
viability, T/C [13]: 11.7%
viability, T/C [14]: 20.7%
viability, T/C [15]: 25.9%
viability, T/C (second compound 1 µM, first compound 0.01 µM): 105%
viability, T/C [16]: 25.3%
viability, T/C [17]: 8.4%
viability, T/C [18]: 11.7%
viability, T/C [19]: 21.2%
viability, T/C [20]: 22.9%
viability, T/C (second compound 3.16 µM, first compound 0.01 µM): 0.3%
viability, T/C [21]: 0.11%
viability, T/C [22]: 0.07%
viability, T/C [23]: 0.06%
viability, T/C [24]: 0.08%
viability, T/C [25]: 0.33%
viability, T/C (second compound 10 µM, first compound 0.01 µM): 0.14%
viability, T/C [26]: 0.15%
viability, T/C [27]: 0.13%
viability, T/C [28]: 0.13%
viability, T/C [29]: 0.12%
viability, T/C [30]: 0.22%

CC1OCC2(CCN(c3cnc(Sc4ccnc(N)c4Cl)c(N)n3)CC2)C1N (configuration not stated) + C=CC(=O)N1CCN(c2nc(OCC3CCCN3C)nc3c2CCN(c2cccc4cccc(C)c24)C3)CC1CC#N
IC50 [31]: > 10000 nM
IC50 [1]: > 10000 nM
IC50 [2]: > 10000 nM
IC50 [3]: > 10000 nM
IC50 [4]: < 31.6 nM
viability, T/C [32]: 92.9%
viability, T/C [33]: 79%
viability, T/C [34]: 75.2%
viability, T/C [35]: 63.5%
viability, T/C [36]: 60%
viability, T/C [37]: 70.8%
viability, T/C [6]: 99.8%
viability, T/C [7]: 88.1%
viability, T/C [8]: 74.5%
viability, T/C [9]: 68.6%
viability, T/C [10]: 63.3%
viability, T/C [38]: 66.6%
viability, T/C [11]: 84.5%
viability, T/C [12]: 84.4%
viability, T/C [13]: 65.4%
viability, T/C [14]: 59.2%
viability, T/C [15]: 65.9%
viability, T/C [39]: 58.4%
viability, T/C [16]: 84.8%
viability, T/C [17]: 70.7%
viability, T/C [18]: 59.2%
viability, T/C [19]: 56.9%
viability, T/C [20]: 57.4%
viability, T/C [40]: 55.5%
viability, T/C [21]: 15.1%
viability, T/C [22]: 13.1%
viability, T/C [23]: 15.4%
viability, T/C [24]: 13%
viability, T/C [25]: 5.45%
viability, T/C [41]: 5.43%

CCNC(=O)CC1N=C(c2ccc(Cl)cc2)c2cc(OC)ccc2-n2c(C)nnc21 (configuration not stated)
viability, T/C (compound 0.0316 µM): 98.9% [middle of 5 runs]
viability, T/C (compound 0.1 µM): 92.1% [middle of 5 runs]
viability, T/C (compound 0.316 µM): 63% [middle of 5 runs]
viability, T/C (compound 1 µM): 45% [middle of 5 runs]
viability, T/C (compound 3.16 µM): 37.6% [middle of 5 runs]
viability, T/C (compound 10 µM): 34.2% [middle of 5 runs]
IC50 (curve of compound): 692 nM [middle of 5 runs]

Cn1nccc1Nc1nccc(-c2cc3c(s2)C(C)(C)N(CCN2CCOCC2)C3=O)n1 + C=CC(=O)N1CCN(c2nc(OCC3CCCN3C)nc3c2CCN(c2cccc4cccc(C)c24)C3)CC1CC#N
IC50 [31]: 657 nM
IC50 [1]: 546 nM
IC50 [2]: 458 nM
IC50 [3]: 170 nM
IC50 [4]: < 31.6 nM
viability, T/C [32]: 100%
viability, T/C [33]: 95.3%
viability, T/C [34]: 64.3%
viability, T/C [35]: 40.6%
viability, T/C [36]: 29.7%
viability, T/C [37]: 19.1%
viability, T/C [6]: 98.2%
viability, T/C [7]: 76.6%
viability, T/C [8]: 57.1%
viability, T/C [9]: 44.5%
viability, T/C [10]: 23.8%
viability, T/C [38]: 17.1%
viability, T/C [11]: 78.4%
viability, T/C [12]: 81%
viability, T/C [13]: 48.3%
viability, T/C [14]: 41.9%
viability, T/C [15]: 22.1%
viability, T/C [39]: 16.8%
viability, T/C [16]: 75.5%
viability, T/C [17]: 52.1%
viability, T/C [18]: 41.6%
viability, T/C [19]: 38%
viability, T/C [20]: 23.3%
viability, T/C [40]: 17.9%
viability, T/C [21]: 11.5%
viability, T/C [22]: 10.4%
viability, T/C [23]: 6.73%
viability, T/C [24]: 1.86%
viability, T/C [25]: 0.55%
viability, T/C [41]: 0.33%

COc1cc2nccc(Oc3ccc(NC(=O)C4(C(=O)Nc5ccc(F)cc5)CC4)cc3)c2cc1OC + CC1OCC2(CCN(c3cnc(Sc4ccnc(N)c4Cl)c(N)n3)CC2)C1N
IC50 [1]: 8050 nM
IC50 [2]: 5530 nM
IC50 [3]: 4800 nM
IC50 [4]: < 31.6 nM
IC50 [5]: 1090 nM
viability, T/C [6]: 75.7%
viability, T/C [7]: 90.5%
viability, T/C [8]: 74.8%
viability, T/C [9]: 77.8%
viability, T/C [10]: 64.1%
viability, T/C [38]: 46.7%
viability, T/C [11]: 64.3%
viability, T/C [12]: 74.3%
viability, T/C [13]: 63.5%
viability, T/C [14]: 71%
viability, T/C [15]: 60.3%
viability, T/C [39]: 37.8%
viability, T/C [16]: 66.8%
viability, T/C [17]: 64.5%
viability, T/C [18]: 65.6%
viability, T/C [19]: 60.6%
viability, T/C [20]: 61%
viability, T/C [40]: 32%
viability, T/C [21]: 42.4%
viability, T/C [22]: 46.4%
viability, T/C [23]: 51.4%
viability, T/C [24]: 52.5%
viability, T/C [25]: 46.8%
viability, T/C [41]: 46.2%
viability, T/C [26]: 44.9%
viability, T/C [27]: 48.7%
viability, T/C [28]: 53.2%
viability, T/C [29]: 56.5%
viability, T/C [30]: 40.1%
viability, T/C [42]: 27.7%

C=CC(=O)N1CCN(c2nc(=O)n(-c3c(C)ccnc3C(C)C)c3nc(-c4c(O)cccc4F)c(F)cc23)C(C)C1 (configuration not stated)
viability, T/C (compound 0.1 µM): 105% [middle of 17 runs]
viability, T/C (compound 10 µM): 66.7% [middle of 17 runs]
IC50 (compound alone, run of 08/19/2021): > 10000 nM
IC50 (compound alone, run of 08/26/2021): > 10000 nM
IC50 (compound alone, run of 09/02/2021): > 10000 nM

COc1cc(Nc2ncc3c(n2)-c2ccc(Cl)cc2C(c2c(F)cccc2OC)=NC3)ccc1C(=O)O + COc1cc2nc(C)nc(NC(C)c3cc(N)cc(C(F)(F)F)c3)c2cc1OC1CCOC1
IC50 [1]: < 31.6 nM
IC50 [2]: < 31.6 nM
IC50 [3]: < 31.6 nM
IC50 [4]: < 31.6 nM
IC50 [5]: < 31.6 nM
viability, T/C [6]: 40.5%
viability, T/C [7]: 35.1%
viability, T/C [8]: 41.5%
viability, T/C [9]: 37.5%
viability, T/C [10]: 37.2%
viability, T/C [38]: 33.2%
viability, T/C [11]: 45.3%
viability, T/C [12]: 38.4%
viability, T/C [13]: 40.7%
viability, T/C [14]: 36.7%
viability, T/C [15]: 37.3%
viability, T/C [39]: 34.6%
viability, T/C [16]: 46.9%
viability, T/C [17]: 35.4%
viability, T/C [18]: 39.4%
viability, T/C [19]: 40.5%
viability, T/C [20]: 33%
viability, T/C [40]: 34.2%
viability, T/C [21]: 38.5%
viability, T/C [22]: 32%
viability, T/C [23]: 32.5%
viability, T/C [24]: 33.7%
viability, T/C [25]: 30.1%
viability, T/C [41]: 31.6%
viability, T/C [26]: 11.7%
viability, T/C [27]: 2.43%
viability, T/C [28]: 2.29%
viability, T/C [29]: 2.71%
viability, T/C [30]: 10.7%
viability, T/C [42]: 2.59%
